Literature values, collected in patent US10849867B2, “Methods and compositions for treating conditions associated with an abnormal inflammatory response” (First Wave Bio, Inc., priority 2015, dated 2020).

Settings: at 20° C.; cited from earlier work

Q: For NCCO.O=C(Nc1ccc([N+](=O)[O-])cc1Cl)c1cc(Cl)ccc1O [ethanol amine salt, 5-chloro-N-(2-chloro-4-nitrophenyl)-2-hydroxybenzamide with 2-aminoethanol (1.1)], which “dissolves in distilled water” value is on record?
A: 180 to 280 mg/L
